Laboratory results reported in patent US20120028897A1, “METHODS AND COMPOSITIONS FOR THE TREATMENT OF FLUID RETENTION DISORDERS” (priority 2008, published 2012).

What was measured:
Format in all cases: in vivo, rat
anesthetized rats [1] = assay: Glomerular filtration rate (FITC-inulin clearance) during and after iv peptide infusion
Method: All rats received a continuous intravenous infusion (10 μl/min/100 g BW) of isotonic saline containing FITC-labeled inulin for measurement of inulin clearance. Uncongugated FITC label and small inulin polymers were removed from the inulin solution by overnight dialysis against isotonic saline (SpectraPor 6 dialysis membrane, 1 kDa cutoff-limit, Spectrum Laboratories, Rancho Domingo, Calif.). Undissolved particulates were removed from the solution by filtration through a […] filter before each experiment (Steriflip, Millipore Inc. Billerica, Mass.). At least one hr was allowed for equilibration before the start of urine collections, at which point plasma inulin concentration had stabilized at an average value of 30±3 μg/ml.
(§1) Arterial blood pressure was measured with a pressure transducer connected to a cardiovascular analyzer (Model 50110, Stoelting Instruments Wood Dale, Ill.). Left renal blood flow was measured in some rats with a flow probe positioned on the left renal artery and connected to a blood flow monitor (model 1 PRB probe and model T420 monitor, Transonic Systems Inc. Ithaca N.Y.). Arterial pressure, heart rate, and renal blood flow were digitized with an A/D converter (Keithley instruments, Cleveland, Ohio Model KUSB 3100) for display and storage on a Windows-based personal computer using open layers data acquisition software (Dtx_Ez, Data Translation Inc, Marlboro, Mass.). Sodium and potassium concentrations in plasma and urine were measured by flame photometry (Model 943, Instrumentation Laboratory Co., Lexington Mass.). Glomerular filtration rate (GFR) was measured as the renal clearance rate of FITC-labeled inulin
(§2) After post-surgical equilibration (−60 min) and three 20 min control clearance periods, huUgnA or B was infused into the jugular vein at 10 μl/min over a 60 min period, followed by a return to isotonic saline for the remainder of the experiment. The infused doses of huUgnA were 12, 25, 50, 100, or 200 nmol/kg BW in a total of 38 rats; huUgnB doses were 9, 18, 35, 70, and 140 nmol/kg BW in 35 rats. A UgnA mimetic, E. coli STh (ST-core), was infused into a third group of 32 rats at doses of 17, 32, 66, 133, and 266 nmol/kg. Renal excretory responses to these infusions were slow to develop and long lasting, so clearance periods were continued for 2-3 hr after the termination of the peptide infusion. This protracted time course limited protocols to one dose of one peptide in each rat. A control group of 10 rats received isotonic saline at 10 μl/min in place of the peptide infusion, but was otherwise treated in the same way as the experimental groups.
This assay was based on the method described by Lorenz and Gruenstein. Urine samples were diluted with hepes-buffered saline (3, 5, 10, or 20 fold, based on urine flow) to neutralize the pH and bring the intensity of FITC emissions into detector range. Small volumes (3-5 μl) of diluted urine and undiluted plasma samples were drawn into constant bore capillary tubes (10 μl Microcap tubes, Drummond Scientific Company, Broomall Pa.) and sealed at each end with water-saturated mineral oil. FITC emission intensity was measured by imaging each sample at 10× magnification with an epifluorescence microscope (Axiovert S100TV, Carl Zeiss Inc. Thornwood, N.Y.) fitted with a CCD camera (Orca II, Hamamatsu Inc. Bridgewater, N.J.) controlled by Metamorph imaging software (Molecular Devices, Sunnyvale, Calif.). Fluorescence intensities were measured as mean pixel intensity obtained from a consistent central region of each sample during a 25 or 500 msec exposure for urine and plasma, respectively. Background intensities were measured in the same way using bladder urine and tail vein plasma collected from the same rat before the beginning of inulin infusion. Inulin concentrations in plasma and urine samples were calculated from a standard curve prepared from the infusion solution used in each experiment. […]

anesthetized rats [2] = assay: Renal potassium excretion during and after iv peptide infusion in anesthetized rats
Method: Rats were not fasted prior to clearance experiments and ranged in weight from 250-340 g at the time of study. Anesthesia was induced with an intraperitoneal injection of pentobarbital sodium (55 mg/kg BW) and maintained at a surgical plane by intermittent intravenous supplementation. Core temperature was maintained at 37° C. by a servo-controlled, heated operating table. Animals breathed spontaneously through a PE240 cannula inserted into the trachea. A jugular vein was catheterized with PE50 cannula tubing for intravenous infusion of isotonic saline containing FITC-labeled inulin (0.4% W/V, Sigma, St Louis Mo.) and two PE10 cannulae, one for supplemental anesthetic and the other for peptide infusions (described below in the experimental protocol section). The ureters were exposed through a midline ventral incision and cannulated with PE10 tubing about one cm from each kidney. Urine was collected over 20 min periods and the volume estimated by weight. A femoral artery was cannulated with PE50 tubing for continuous measurement of arterial blood pressure and intermittent blood samples (50 μl), taken at the mid point of each urine collection.
as §1, §2
Sodium and potassium excretion rates are expressed as absolute values (UNaV and UKV) or factored by filtered load to provide fractional excretion (FENa and FEK). Glomerular filtration rate (GFR) was equated with inulin clearance. The net natriuretic response to peptide infusions was assessed by summing total Na excretion during infusion and post-infusion collection periods in each rat after subtraction of corresponding mean values obtained from the control group. The cumulative net excretion obtained in this way provides a measure of the natriuretic response to each dose of peptide infused. Results from both kidneys were averaged for each rat before calculating group means±sem.
Group comparisons were made with one way analysis of variance (ANOVA) using peptide doses as column variables. […]

anesthetized rats [3] = assay: Renal blood flow (flow probe on left renal artery)
Method: as §1, §2

CC(C)C[C@H](NC(=O)[C@@H]1CSSC[C@@H]2NC(=O)[C@H](CC(C)C)NC(=O)[C@H](CCC(=O)O)NC(=O)[C@@H](NC(=O)[C@H](CC(=O)O)NC(=O)[C@H](CC(=O)O)NC(=O)[C@@H](N)CC(N)=O)CSSC[C@H](NC(=O)[C@H](C)NC(=O)[C@H](C(C)C)NC(=O)[C@H](CC(N)=O)NC(=O)[C@H](C(C)C)NC2=O)C(=O)N[C@@H]([C@@H](C)O)C(=O)NCC(=O)N1)C(=O)O (single isomer, unassigned) [huUgnB, Asn Asp Asp Cys Glu Leu Cys Val Asn Val Ala Cys Thr Gly Cys Leu]
GFR (glomerular filtration rate) (anesthetized rats [1]; huUgnB 9 nmol, Infusion): 918 ± 66 μl/min/g KW
GFR (glomerular filtration rate) (anesthetized rats [1]; huUgnB 9 nmol, Post-infuse): 947 ± 60 μl/min/g KW
GFR (glomerular filtration rate) (anesthetized rats [1]; huUgnB 9 nmol, Pre-infuse): 921 ± 57 μl/min/g KW
GFR (glomerular filtration rate) (anesthetized rats [1]; huUgnB 18 nmol, Infusion): 936 ± 76 μl/min/g KW
GFR (glomerular filtration rate) (anesthetized rats [1]; huUgnB 18 nmol, Post-infuse): 877 ± 80 μl/min/g KW
GFR (glomerular filtration rate) (anesthetized rats [1]; huUgnB 18 nmol, Pre-infuse): 890 ± 55 μl/min/g KW
GFR (glomerular filtration rate) (anesthetized rats [1]; huUgnB 35 nmol, Infusion): 830 ± 48 μl/min/g KW
GFR (glomerular filtration rate) (anesthetized rats [1]; huUgnB 35 nmol, Post-infuse): 870 ± 53 μl/min/g KW
GFR (glomerular filtration rate) (anesthetized rats [1]; huUgnB 35 nmol, Pre-infuse): 866 ± 64 μl/min/g KW
GFR (glomerular filtration rate) (anesthetized rats [1]; huUgnB 70 nmol, Infusion): 867 ± 86 μl/min/g KW
GFR (glomerular filtration rate) (anesthetized rats [1]; huUgnB 70 nmol, Post-infuse): 876 ± 26 μl/min/g KW
GFR (glomerular filtration rate) (anesthetized rats [1]; huUgnB 70 nmol, Pre-infuse): 883 ± 95 μl/min/g KW
GFR (glomerular filtration rate) (anesthetized rats [1]; huUgnB 140 nmol, Infusion): 788 ± 67 μl/min/g KW
GFR (glomerular filtration rate) (anesthetized rats [1]; huUgnB 140 nmol, Post-infuse): 924 ± 46 μl/min/g KW
GFR (glomerular filtration rate) (anesthetized rats [1]; huUgnB 140 nmol, Pre-infuse): 858 ± 86 μl/min/g KW
FEK (fractional potassium excretion) (anesthetized rats [2]; huUgnB 9 nmol, Infuse): 30.6 ± 6.1 % of filtered
UKV (potassium excretion) (anesthetized rats [2]; huUgnB 9 nmol, Infusion): 840 ± 83 nEq/min/g KW
FEK (fractional potassium excretion) (anesthetized rats [2]; huUgnB 9 nmol, Post-infuse): 34.8 ± 3.1 % of filtered
UKV (potassium excretion) (anesthetized rats [2]; huUgnB 9 nmol, Post-infuse): 943 ± 82 nEq/min/g KW
FEK (fractional potassium excretion) (anesthetized rats [2]; huUgnB 9 nmol, Pre-infuse): 23.4 ± 6.0 % of filtered
UKV (potassium excretion) (anesthetized rats [2]; huUgnB 9 nmol, Pre-infuse): 655 ± 79 nEq/min/g KW
FEK (fractional potassium excretion) (anesthetized rats [2]; huUgnB 18 nmol, Infuse): 29.6 ± 3.2 % of filtered
UKV (potassium excretion) (anesthetized rats [2]; huUgnB 18 nmol, Infusion): 860 ± 72 nEq/min/g KW
FEK (fractional potassium excretion) (anesthetized rats [2]; huUgnB 18 nmol, Post-infuse): 39.2 ± 2.6 % of filtered
UKV (potassium excretion) (anesthetized rats [2]; huUgnB 18 nmol, Post-infuse): 1014 ± 79 nEq/min/g KW
FEK (fractional potassium excretion) (anesthetized rats [2]; huUgnB 18 nmol, Pre-infuse): 20.0 ± 2.3 % of filtered
UKV (potassium excretion) (anesthetized rats [2]; huUgnB 18 nmol, Pre-infuse): 592 ± 71 nEq/min/g KW
FEK (fractional potassium excretion) (anesthetized rats [2]; huUgnB 35 nmol, Infuse): 32.6 ± 3.7 % of filtered
UKV (potassium excretion) (anesthetized rats [2]; huUgnB 35 nmol, Infusion): 837 ± 84 nEq/min/g KW
FEK (fractional potassium excretion) (anesthetized rats [2]; huUgnB 35 nmol, Post-infuse): 38.9 ± 3.0 % of filtered
UKV (potassium excretion) (anesthetized rats [2]; huUgnB 35 nmol, Post-infuse): 998 ± 85 nEq/min/g KW
FEK (fractional potassium excretion) (anesthetized rats [2]; huUgnB 35 nmol, Pre-infuse): 25.7 ± 2.4 % of filtered
UKV (potassium excretion) (anesthetized rats [2]; huUgnB 35 nmol, Pre-infuse): 729 ± 79 nEq/min/g KW
FEK (fractional potassium excretion) (anesthetized rats [2]; huUgnB 70 nmol, Infuse): 37.7 ± 9.8 % of filtered
UKV (potassium excretion) (anesthetized rats [2]; huUgnB 70 nmol, Infusion): 1297 ± 209 nEq/min/g KW
FEK (fractional potassium excretion) (anesthetized rats [2]; huUgnB 70 nmol, Post-infuse): 47.1 ± 5.6 % of filtered
UKV (potassium excretion) (anesthetized rats [2]; huUgnB 70 nmol, Post-infuse, * p<0.05 vs time control): 1491 ± 183* nEq/min/g KW
FEK (fractional potassium excretion) (anesthetized rats [2]; huUgnB 70 nmol, Pre-infuse): 20.4 ± 5.5 % of filtered
UKV (potassium excretion) (anesthetized rats [2]; huUgnB 70 nmol, Pre-infuse): 791 ± 265 nEq/min/g KW
FEK (fractional potassium excretion) (anesthetized rats [2]; huUgnB 140 nmol, Infuse): 49.2 ± 3.6 % of filtered
UKV (potassium excretion) (anesthetized rats [2]; huUgnB 140 nmol, Infusion): 1086 ± 124 nEq/min/g KW
UKV (potassium excretion) (anesthetized rats [2]; huUgnB 140 nmol, Post-infuse): 1396 ± 89 nEq/min/g KW
FEK (fractional potassium excretion) (anesthetized rats [2]; huUgnB 140 nmol, Post-infuse, ** p<0.01 vs time control): 58.4 ± 3.5** % of filtered
FEK (fractional potassium excretion) (anesthetized rats [2]; huUgnB 140 nmol, Pre-infuse): 28.3 ± 0.9 % of filtered
UKV (potassium excretion) (anesthetized rats [2]; huUgnB 140 nmol, Pre-infuse): 770 ± 78 nEq/min/g KW
FEK vs control (anesthetized rats [2]; post infusion period, only after the highest doses): increased over control levels
Renal blood flow (RBF) (anesthetized rats [3]; 35 nmol huUgnB/kg, before (first value of change), n=4): 2.5+0.1 ml/min/g KW
Renal blood flow (RBF) (anesthetized rats [3]; after 35 nmol huUgnB/kg, p<0.001, n=4): 3.0+0.4 ml/min/g KW
